Assay results published in patent publication US8865734B2 (priority 2010, dated 2014).
In brackets after ≈: the same amount, converted by molar mass. Structures can show the parent of a compound that is named as a salt.

Legend:
[1] = tested on: in vitro grown Mycobacteria (M. tuberculosis); experiment: QUM: Quantification of in vitro grown Mycobacteria (in vitro growth fluorescence assay); assay type: cell-based; conditions: MIC, 80% bacterial growth inhibition, in vitro growth; for MIC: Mycobacterium tuberculosis, read-out: QUM
Summary of the method: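 Mycobacterium tuberculosis grown in vitro was quantified by fluorescence across compound dose responses. MIC is defined as the minimum concentration producing 80% growth inhibition.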

[2] = tested on: M. tuberculosis inside the host macrophage; experiment: QIM: Quantification of Intracellular Mycobacteria (intracellular growth assay, phenotypic cell-based); conditions: MIC, 80% bacterial growth inhibition, intracellular growth; for MIC: Mycobacterium tuberculosis, read-out: QIM
Summary of the method: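 Phenotypic high-content assay measuring M. tuberculosis multiplication inside host macrophages, run as dose response. MIC is the minimum compound concentration giving 80% bacterial growth inhibition.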

Structure (SMILES)	melting point	MIC [1]	QIM (μM) [2]	QUM (μM) [1]	MIC [2]
CCc1nc2cc(Cl)ccn2c1C(=O)NCc1ccc(N2CCN(c3ccc(F)cc3)CC2)cc1 (as salt: hydrochloride) [Compound 177, 7-Chloro-2-ethyl-N-(4-(4-(4-fluorophenyl)piperazin-1-yl)benzyl)imidazo[1,2-a]pyridine-3-carboxamide trihydrochloride]	204.4 to 206.9 °C				
CCc1nc2ccc(OC)cn2c1C(=O)NCc1ccc(N2CCN(c3ccc(F)cc3)CC2)cc1 [Compound 112, 2-Ethyl-N-(4-(4-(4-fluorophenyl)piperazin-1-yl)benzyl)-6-methoxyimidazo[1,2-a]pyridine-3-carboxamide]	173.8 °C	< 1 µM			
CCc1nc2cc(Cl)ccn2c1C(=O)NCc1ccn(-c2ccc(OC(F)(F)F)cc2)n1 [Compound 232, 7-Chloro-2-ethyl-N-((1-(4-(trifluoromethoxy)phenyl)-1H-pyrazol-3-yl)methyl) imidazo[1,2-a]pyridine-3-carboxamide]			++ (++ indicates between 1-20 uM)	++ (++ indicates between 1-20 uM)	
CCc1nc2ccc(Cl)cn2c1C(=O)NCc1ccn(-c2ccc(C(F)(F)F)cc2)n1 [Compound 233, 6-Chloro-2-ethyl-N-4-((1-(4-(trifluoromethyl)phenyl)-1H-pyrazol-3-yl)methyl)imidazo[1,2-a]pyridine-3-carboxamide]		> 20 µM			> 20 µM
CCc1nc2cc(Cl)ccn2c1C(=O)NCc1ccn(-c2ccc(C(F)(F)F)cc2)n1 [Compound 234, 7-Chloro-2-ethyl-N-((1-(4-(trifluoromethyl)phenyl)-1H-pyrazol-3-yl)methyl)imidazo[1,2-a]pyridine-3-carboxamide]		1 to 20 µM (≈ 0.448 to 8.96 µg/mL)			1 to 20 µM (≈ 0.448 to 8.96 µg/mL)
CCc1nc2ccc(Cl)cn2c1C(=O)NCc1ccn(-c2ccc(F)cc2)n1 [Compound 235, 6-Chloro-2-ethyl-N-((1-(4-fluorophenyl)-1H-pyrazol-3-yl)methyl)imidazo[1,2-a]pyridine-3-carboxamide]		1 to 20 µM (≈ 0.398 to 7.96 µg/mL)			1 to 20 µM (≈ 0.398 to 7.96 µg/mL)
CCc1nc2cc(Cl)ccn2c1C(=O)NCc1ccn(-c2ccc(F)cc2)n1 [Compound 236, 7-Chloro-2-ethyl-N-((1-(4-fluorophenyl)-1H-pyrazol-3-yl)methyl)imidazo[1,2-a]pyridine-3-carboxamide]		1 to 20 µM (≈ 0.398 to 7.96 µg/mL)			> 20 µM
CCc1nc2ccc(Cl)cn2c1C(=O)NCC1CCCc2c1cnn2-c1ccc(OC(F)(F)F)cc1 (stereo not drawn) [Compound 237, 6-Chloro-2-ethyl-N-((1-(4-(trifluoromethoxy)phenyl)-4,5,6,7-tetrahydro-1,1-indazol-4-yl)methyl)imidazo[1,2-a]pyridine-3-carboxamide]		> 20 µM			> 20 µM
CCc1nc2ccc(Cl)cn2c1C(=O)NCC1CCCc2c1cnn2-c1ccc(F)cc1 (stereo not drawn) [Compound 238, 6-Chloro-2-ethyl-N-((1-(4-fluorophenyl)-4,5,6,7-tetrahydro-1H-indazol-4-yl)methyl) imidazo[1,2-a]pyridine-3-carboxamide]		> 20 µM			> 20 µM
CCc1nc2ccc(Cl)cn2c1CNc1ccc(OC(F)(F)F)cc1 [Compound 240, N-((6-Chloro-2-ethylimidazo[1,2-a]pyridin-3-yl)methyl)-4-(trifluoromethoxy)aniline]		> 20 µM			> 20 µM
CCc1nc2cc(Cl)ccn2c1-c1nnc(CN2CCN(c3ccc(OC(F)(F)F)cc3)CC2)o1 [Compound 244, 2-(7-Chloro-2-ethylimidazo[1,2-a]pyridin-3-yl)-5-((4-(4-(trifluoromethoxy)phenyl)piperazin-1-yl)methyl)-1,3,4-oxadiazole]		1 to 20 µM (≈ 0.507 to 10.1 µg/mL)			1 to 20 µM (≈ 0.507 to 10.1 µg/mL)
CCc1nc2ccc(Cl)cn2c1-c1nc(Cc2ccc(Oc3ccc(F)cc3)cc2)no1 [Compound 245, 5-(6-Chloro-2-ethylimidazo[1,2-a]pyridin-3-yl)-3-(4-(4-fluorophenoxy)benzyl)-1,2,4-oxadiazole]	129.9 °C	1 to 20 µM (≈ 0.449 to 8.98 µg/mL)			
CCNC(=O)c1c(CC)nc2ccc(Cl)cn12 [Compound 246, 6-Chloro-N,2-diethylimidazo[1,2-a]pyridine-3-carboxamide]	176.7 °C	> 20 µM			
CCc1nc2ccc(Cl)cn2c1C(=O)NCC(C)C [Compound 247, 6-Chloro-2-ethyl-N-isobutylimidazo[1,2-a]pyridine-3-carboxamide]	162.2 °C	> 20 µM			
CCc1nc2cc(Cl)ccn2c1C(=O)NCc1cccc(-c2ccc(OC(F)(F)F)cc2)c1 [Compound 248, 7-Chloro-2-ethyl-N-((4′-(trifluoromethoxy)biphenyl-3-yl)methyl)imidazo[1,2-a]pyridine-3-carboxamide]	192.6 °C	< 1 µM			
CCc1nc2ccc(F)cn2c1C(=O)NCc1ccc(Oc2ccc(OC(F)(F)F)cc2)cc1 [Compound 253, 2-Ethyl-6-fluoro-N-(4-(4-(trifluoromethoxy)phenoxy)benzyl)imidazo[1,2-a]pyridine-3-carboxamide]	133.4 °C	< 1 µM			

Structure (SMILES)	melting point	MIC [1]	QIM (μM) [2]	QUM (μM) [1]	MIC [2]
CCc1nc2ccc(Br)cn2c1C(=O)NCc1ccc(Oc2ccc(OC(F)(F)F)cc2)cc1 [Compound 254, 6-Bromo-2-ethyl-N-(4-(4-(trifluoromethoxy)phenoxy)benzyl)imidazo[1,2-a]pyridine-3-carboxamide]	152.9 °C	< 1 µM			
CCc1nc2cc(C)ccn2c1C(=O)NCc1ccc(Oc2ccc(OC(F)(F)F)cc2)cc1 [Compound 256, 2-Ethyl-7-methyl-N-(4-(4-(trifluoromethoxy)phenoxy)benzyl)imidazo[1,2-a]pyridine-3-carboxamide]	133.6 °C	< 1 µM			
CCc1nc2c(F)cccn2c1C(=O)NCc1ccc(Oc2ccc(OC(F)(F)F)cc2)cc1 [Compound 257, 2-Ethyl-8-fluoro-N-(4-(4-(trifluoromethoxy)phenoxy)benzyl)imidazo[1,2-a]pyridine-3-carboxamide]	105.6 °C	< 1 µM			
CCc1nc2ccc(F)cn2c1C(=O)NCc1ccc(OCc2ccc(OC(F)(F)F)cc2)cc1 [Compound 258, 2-Ethyl-6-fluoro-N-(4-(4-(trifluoromethoxy)benzyloxy)benzyl)imidazo[1,2-a]pyridine-3-carboxamide]		< 1 µM			< 1 µM
CCc1nc2ccc(Br)cn2c1C(=O)NCc1ccc(OCc2ccc(OC(F)(F)F)cc2)cc1 [Compound 259, 6-Bromo-2-ethyl-N-(4-(4-(trifluoromethoxy)benzyloxy)benzyl)imidazo[1,2-a]pyridine-3-carboxamide]	189.7 °C	< 1 µM			
CCc1nc2ccccn2c1C(=O)NCc1ccc(OCc2ccc(OC(F)(F)F)cc2)cc1 [Compound 260, 2-Ethyl-N-(4-(4-(trifluoromethoxy)benzyloxy)benzyl)imidazo[1,2-a]pyridine-3-carboxamide]	138.7 °C	< 1 µM			
CCc1nc2ccccn2c1C(=O)NCc1ccc(N(C)Cc2ccc(OC(F)(F)F)cc2)cc1 [Compound 263, 2-Ethyl-N-(4-(methyl(4-(trifluoromethoxy)benzyl)amino)benzyl)imidazo[1,2-a]pyridine-3-carboxamide]		< 1 µM			< 1 µM
CCc1nc2cc(Cl)ccn2c1C(=O)NCc1ccc(N2CCN3CCCC3C2)cc1 (stereo not drawn) [Compound 265, 7-Chloro-2-ethyl-N-(4-(hexahydropyrrolo[1,2-a]pyrazin-2(1H)-yl)benzyl)imidazo[1,2-a]pyridine-3-carboxamide]	159.1 °C	> 20 µM			
CCc1nc2ccc(Cl)cn2c1C(=O)NCc1ccc(N2CCN3CCCC3C2)cc1 (stereo not drawn) [Compound 266, 6-Chloro-2-ethyl-N-(4-(hexahydropyrrolo[1,2-a]pyrazin-2(1H)-yl)benzyl)imidazo[1,2-a]pyridine-3-carboxamide]	163 °C	> 20 µM			
CCc1nc2cc(Cl)ccn2c1C(=O)NCc1ccc(N2CCC3CCCCC3C2)cc1 (stereo not drawn) [Compound 268, 7-Chloro-2-ethyl-N-(4-(octahydroisoquinolin-2(1H)-yl)benzyl)imidazo[1,2-a]pyridine-3-carboxamide]	174.2 °C	< 1 µM			
CCc1nc2cc(Cl)ccn2c1C(=O)NCc1ccc(N2CCC(=O)CC2)cc1 [Compound 269, 7-Chloro-2-ethyl-N-(4-(4-oxopiperidin-1-yl)benzyl)imidazo[1,2-a]pyridine-3-carboxamide]		< 1 µM			1 to 20 µM (≈ 0.411 to 8.22 µg/mL)
CCc1nc2ccc(Cl)cn2c1C(=O)NCc1ccc(N2CCCCC2C)cc1 (stereo not drawn) [Compound 272, 6-chloro-2-ethyl-N-(4-(2-methylpiperidin-1-yl)benzyl)imidazo[1,2-a]pyridine-3-carboxamide]		< 1 µM			< 1 µM
CCc1nc2ccc(Cl)cn2c1C(=O)NCc1ccc(N2CCC(COC(C)C)CC2)cc1 [Compound 291, 6-Chloro-2-ethyl-N-(4-(4-(isopropoxymethyl)piperidin-1-yl)benzyl)imidazo[1,2-a]pyridine-3-carboxamide]		< 1 µM			< 1 µM
CCc1nc2cc(Cl)ccn2c1C(=O)NCc1ccc(N2CCC(COC(C)C)CC2)cc1 [Compound 292, 7-Chloro-2-ethyl-N-(4-(4-(isopropoxymethyl)piperidin-1-yl)benzyl)imidazo[1,2-a]pyridine-3-carboxamide]		< 1 µM			< 1 µM
CCc1nc2ccc(F)cn2c1C(=O)NCc1ccc(N2CCOCC2)cc1 [Compound 316, 2-Ethyl-6-fluoro-N-(4-morpholinobenzyl)imidazo[1,2-a]pyridine-3-carboxamide]		1 to 20 µM (≈ 0.382 to 7.65 µg/mL)			1 to 20 µM (≈ 0.382 to 7.65 µg/mL)
CCc1nc2cc(N3CCN(c4ccc(F)cc4)CC3)ccn2c1C(=O)NCc1ccc(N2CCOCC2)cc1 [Compound 329, 2-Ethyl-7-(4-(4-fluorophenyl)piperazin-1-yl)-N-(4-morpholinobenzyl)imidazo[1,2-a]pyridine-3-carboxamide]		> 20 µM			> 20 µM
